# Key:
# [1] = aqueous solution; converted to a different crystalline form after storage at 35° C.; cited from earlier work
# [2] = Stability of the API on boiling/stirring in water, tested by X-ray diffraction; assay type: physicochemical; details: boiling in water (with and without Tween 80), two hours stirring at 70 deg in a water bath, then 2 hours at 70 deg on a magnetic stirrer; residue dried at 25° C. under vacuum
# Experimental: The monohydrate peak is clearly visible in the BX 2029 trace, and is absent in the remaining pattern, indicating the presence of anhydrous form in the formulation. Stability of the mometasone furoate anhydrous API was confirmed by boiling in water (with and without the surfactant Tween 80) for two hours whilst stirring at 70 deg in a water bath, followed by 2 hours at 70 deg on a magnetic stirrer. The solution was cooled to room temperature, filtered and the residue containing the API was dried at 25° C. under vacuum. […]
# [3] = Rotation stability of the composition, crystalline form assessed by X-ray diffraction; assay type: physicochemical; details: in the aqueous composition; rotated for five days at 35° C. and an additional four weeks at room temperature
# Text: The crystalline form may be assessed using X-ray diffraction methods.
# [4] = Storage stability of the composition, crystalline form assessed by X-ray diffraction; assay type: physicochemical; details: in the aqueous composition
# Text: The stability of the compositions in accordance with the present invention may be defined by standard methods. The anhydrous crystalline form is stable at room temperature. […] The crystalline form may be assessed using X-ray diffraction methods.
smiles,measurement,setting,value
C[C@@H]1C[C@H]2[C@@H]3CCC4=CC(=O)C=C[C@]4(C)[C@@]3(Cl)[C@@H](O)C[C@]2(C)[C@@]1(OC(=O)c1ccco1)C(=O)CCl [anhydrous mometasone furoate],stability of the crystalline form in aqueous composition,[1],unstable
same,XRD pattern of the dried sample after treatment in water,[2],concordant with that of mometasone furoate anhydrous
same,crystalline form of the anhydrous mometasone furoate in the composition,[3],does not change
same,crystalline form of the anhydrous mometasone furoate in the composition,[4]; 25° for a period of three months,does not change
same,crystalline form of the anhydrous mometasone furoate in the composition,[4]; 40° C. for a period of three months,does not change

# Source: patent US20090325917A1, “Pharmaceutical Compositions and Nasal Spray Incorporating Anhydrous Mometasone Furoate” (CIPLA LIMITED, priority 2006, published 2009)
